Experimental data reported in patent US8178505B2, “Method of predicting and reducing risk of metastasis of breast cancer to lung” (Sloan-Kettering Institute for Cancer Research, priority 2005, dated 2012).

Tests used:
[1] = system: LM2 cells; assay: Lung metastasis formation after tail vein injection of LM2 cells, pharmacological targeting, bioluminescence imaging; assay type: in vivo, Balb/c nude mice; settings: preliminary results; drugs individually or in combination; FIGS. 2A and 2B
Description: Animal studies. All animal work was done in accordance with an IACUC approved protocol. Four to 6-week-old Balb/c nude mice (NCI) were used for all xenografting studies. For lung metastasis formation, 2×10^5 viable cells were washed and harvested in PBS and subsequently injected into the lateral tail vein in a volume of 0.1 mL. Endpoint assays were conducted at 15 weeks post-injection unless significant morbidity required that the mouse be sacrificed earlier. […] Mice were imaged for luciferase activity immediately after injection to exclude any that were not successfully xenografted.
Bioluminescent imaging and analysis. Mice were anesthetized and retro-orbitally injected with 1.5 mg of D-luciferin (15 mg/mL in PBS). Imaging was completed between 2-5 minutes post-injection using a Xenogen IVIS system coupled to Living Image acquisition and analysis software (Xenogen). For BLI plots, photon flux was calculated for each mouse using a rectangular region of interest (ROI) encompassing the thorax of the mouse in a prone position.

[2] = system: MMP-1, 3, 9, 10 and 11; settings: cited from earlier work
[3] = system: malignant cell lines; settings: in culture; cited from earlier work

Compound | preventing lung metastasis [1] | production of MMP-1, 3, 9, 10 and 11 ([2]; by inhibiting PKC) | direct effect on activity of MMPs [2] | differentiation and growth of malignant cell lines [3]
CNC(=O)[C@H](Cc1c[nH]c2ccccc12)NC(=O)[C@@H](CC(=O)NO)CC(C)C [GM-6001, Ilomastat] | findings similar to those obtained using genetic knockdowns |  |  | 
CCC/C=C/C=C/C(=O)O[C@H]1/C(=C/C(=O)OC)C[C@H]2C[C@H]([C@@H](C)O)OC(=O)C[C@H](O)C[C@@H]3C[C@H](OC(C)=O)C(C)(C)[C@](O)(C[C@@H]4C/C(=C/C(=O)OC)C[C@H](/C=C/C(C)(C)[C@]1(O)O2)O4)O3 [bryostatin-1] |  | can inhibit the production of MMP-1, 3, 9, 10 and 11 | does not directly affect the activity of MMPs | induce differentiation and halt the growth of several malignant cell lines
